Data from US10221137B2, “Herbicidal phenylpyridines” (BASF SE, priority 2015, dated 2019).

Assays:
Assay in all cases: greenhouse experiment, post-emergence treatment
Type in all cases: in vivo
Details in all cases: application rate of 16 g/ha, post-emergence method; scale from 0 to 100
Setaria viridis = test system: Setaria viridis
Description: (§1) The seeds of the test plants were sown separately for each species. For the post-emergence treatment, the test plants were first grown to a height of 3 to 15 cm, depending on the plant habit, and only then treated with the active ingredients which had been suspended or emulsified in water. For this purpose, the test plants were either sown directly and grown in the same containers, or they were first grown separately as seedlings and transplanted into the test containers a few days prior to treatment. Depending on the species, the plants were kept at 10-25° C. or 20-35° C., respectively. The test period extended over 2 to 4 weeks. During this time, the plants were tended, and their response to the individual treatments was evaluated. Evaluation was carried out using a scale from 0 to 100. 100 means no emergence of the plants, or complete destruction of at least the aerial moieties, and 0 means no damage, or normal course of growth. A good herbicidal activity is given at values of at least 70 and a very good herbicidal activity is given at values of at least 85. The plants used in the greenhouse experiments were of the following species: [table]

Chenopodium album = test system: Chenopodium album
Description: as §1

Amaranthus retroflexus = test system: Amaranthus retroflexus
Description: as §1

| Structure (SMILES) | herbicidal activity against Setaria viridis (Setaria viridis) | herbicidal activity against Chenopodium album (Chenopodium album) | herbicidal activity against Amaranthus retroflexus (Amaranthus retroflexus) |
| --- | --- | --- | --- |
| COc1ccc(CNC(=O)C(OC)Oc2cc(-c3ncc(C(F)(F)F)cc3Cl)c(F)cc2Cl)cc1 (stereo not drawn) [Example 44] | good herbicidal activity (A good herbicidal activity is given at values of at least 70) | very good herbicidal activity (a very good herbicidal activity is given at values of at least 85) | very good herbicidal activity (a very good herbicidal activity is given at values of at least 85) |
| COC(=O)C(OC)Oc1cc(-c2ncc(Cl)cc2Cl)ccc1Cl (racemic) [Example 6] | very good herbicidal activity (a very good herbicidal activity is given at values of at least 85) | good herbicidal activity (A good herbicidal activity is given at values of at least 70) | very good herbicidal activity (a very good herbicidal activity is given at values of at least 85) |
